# In publication PMC6749073 (Frontiers in Pharmacology, 2019):
# Key:
# [1] = system: A549 xenograft tumors; experiment: A549 xenograft tumor growth in nude mice; format: in vivo; details: 30, 60, 120 mg/kg, tail vein every 3 days
# Description: (§3) Cells in logarithmic growth were washed with PBS and suspended in serum-free medium. Portions of the suspension (5 × 10^6 cells in 0.1 ml/mouse) were mixed at a 3:1 ratio with Matrigel basement membrane matrix and injected subcutaneously into the mice. Following 2 weeks of growth, tumor tissues were cut into multiple 2 × 2 × 2 mm^3 pieces and implanted using a range trocar subcutaneously (s.c. injection) into the left forepaw armpit of each mouse ([Jiang et al., 2017]). Treatment with pharmacology was started when the tumors reached an average volume of 100–200 mm^3. The mice were randomly divided into six groups (n = 14/group).
# (§4) Body weight and tumor size were assessed every 3 days. Tumor size was measured using a caliper, the volumes were calculated according to the following standard formula: V = (L × W^2)/2 (V = tumor volume, L = largest diameter of tumor, W = smallest diameter of tumor). On day 25, all mice were sacrificed by cervical dislocation, and the tumors were removed and weighed.
# [2] = system: ICR mice; experiment: General neurotoxicity observation in ICR mice; format: in vivo; details: i.v.
# Excerpt: The animals were observed daily for any evident symptoms of sickness. Changes in their appearance (e.g., kyphosis and altered grooming), behavior (altered nesting) and activity (altered exploring) were monitored for general neurotoxicity assessment.
# [3] = system: rats; experiment: Renal pathology (H&E) in rats; format: in vivo; details: 7.5, 15, and 30 mg/kg twice a week for 4 weeks
# Description: Total 30 rats were employed in the experiments, 20 rats were euthanized with isoflurane 3 days after the last administration, and the kidneys were excised and examined by the H&E staining, and the remaining 10 rats were handled after the recovery period (two weeks after the last administration). We found drug-related renal changes were appeared in the rats, especially in the high dose group (30 mg/kg). Of all the changes, the renal tubular epithelium denaturation/regeneration and tubular dilation are the most obvious, which are early appeared after 7.5 mg/kg treatment at both last administration and during recovery period.
# [4] = system: A549 cells; experiment: Cell cycle by PI flow cytometry, A549; format: cell-based, human; details: diplatin 50 μM, DDP 5 μM, CBP 100 μM
# Description: (§1) Then, the cells were trypsinized, washed with PBS, and fixed in 1.5 ml 95% ethanol and left at 4°C overnight. They were then incubated with RNase and stained with propidium iodide (PI) (Multi Sciences Biotech Co., Ltd). PI absorbance was determined using a Cytomics FC500 Flow Cytometer (Beckman Coulter, USA).
# [5] = system: LTEP-A-2 xenograft tumor; experiment: LTEP-A-2 xenograft tumor growth in nude mice; format: in vivo; details: comparable to DDP 6 mg/kg and CBP 60 mg/kg
# [6] = Pharmacokinetic and toxicokinetic characterization in Beagle dogs; format: in vivo; details: single dose 10, 20, 40 mg/kg
# Excerpt: Furthermore, AI was employed to evaluate the accumulated toxicity of the two complexes.
# [7] = system: A549, NCI-H292, NCI-H460, and LTEP-A-2 xenograft models; experiment: ED50 (50% reduction of xenograft tumor volume) in nude mice; format: in vivo; details: dose reducing xenograft tumor volume by 50%; average over A549, NCI-H292, NCI-H460, and LTEP-A-2 xenograft models
# Description: After injection, the animals’ condition was monitored every day for over 1 week by an observer who was blinded to the dose and drug allocation.
# Estimates for ED50 and LD50 were calculated through nonlinear regression, data were fitted to a sigmoidal dose-response relationship in Prism (version 4.0a; GraphPad Software, Inc., San Diego, CA). The data were fitted to the equation:
# Y=Ymin+Ymax−Ymin/1+10^(LogED50−X)∗HillSlope
# where X is the logarithm of concentration, and Y is the response.
# [8] = system: HCC827; experiment: MTT cell viability assay, HCC827; format: cell-based, human; details: 48 h
# Description: (§2) Cells were seeded at a density of 1 × 10^4 cells per well in 96-well plates. The following day, these cells were washed with PBS and exposed to different concentrations of testing compounds in culture medium for 48 h. MTT solution (10 μl at 5 mg/ml) was added to each well. After 4 h of incubation at 37°C, the medium was removed, and the insoluble precipitate was dissolved in 100 μl DMSO (Sigma, St. Louis, MO, USA). The absorbance of the dissolved solution at 490 nm was measured using a microplate reader (TECAN A-5082; Megllan, Austria). Cell viability percentages were calculated by dividing the mean optical density (OD) of compound-containing wells by that of the control wells. Each experiment was replicated three times. The IC50 of testing drugs was calculated with Statistical Product and Service Solutions software (SPSS, version 16.0).
# [9] = system: LTEP-A-2; experiment: MTT cell viability assay, LTEP-A-2; format: cell-based, human; details: 48 h
# Description: as §2
# [10] = system: LTEP-A-2 cells; experiment: Cell cycle by PI flow cytometry, LTEP-A-2; format: cell-based, human; details: diplatin 50 µM, DDP 5 µM, CBP 100 µM
# Description: as §1
# [11] = Biodistribution of Pt by atomic absorption spectrometry in A549 xenograft nude mice; format: in vivo; details: 6 h after administration; diplatin 120 mg/kg vs CBP 70 mg/kg (equivalent Pt dose), i.v.
# Description: At each time point of 10 min, 2 h, 6 h, and 24 h after administration, six mice were sacrificed. The tumors, organs/tissues, and blood were immediately collected. Then, Pt concentration was measured by atomic absorption spectrometry, counting the weight/volume of the tumors, tissues, organs, or blood.
# At each time point of 10 min, 2 h, 6 h and 24 h after administration, 6 mice were sacrificed. The tumors, organ/tissue, and blood were immediately collected. Then, Pt concentration was measured by atomic absorption spectrometry, counting the weight/volume of the tumors, tissues or organs/blood.
# [12] = system: A549 and H292 cells; experiment: EdU incorporation assay; format: cell-based, human; details: 48 h; diplatin 50 μM, DDP 5 μM, CBP 100 μM
# Description: Cell proliferation was analyzed by measurement of DNA synthesis as identified by the EdU cell proliferation assay, which was applied in accordance with product manufacturer instructions. Cells (5 × 10^4 cells per well) were cultured in triplicate in 24-well plates and treated with testing compounds for 48 h. Then the cells were incubated with 50 μM EdU for an additional 2 h at 37°C. Cells were fixed with 4% formaldehyde for 30 min and were permeabilized with 0.5% Triton X-100 for 10 min at room temperature. After washing with PBS three times, cells were incubated for 30 min with 1× Apollo reaction cocktail. Finally, cells were stained with 10 μg/ml of Hoechst 33342 for 30 min and then imaged using a confocal laser scanning microscope (FV1000; Olympus, Japan). The percentage of EdU^+ cells was quantified using ImageJ software by dividing the mean OD of EdU^+ cells to the mean OD of Hoechst-labeled cells.
# [13] = Body weight and tolerability of A549 and H292 xenograft mice; format: in vivo
# Description: as §3, §4
# [14] = system: A549/DDP; experiment: MTT cell viability assay, A549/DDP; format: cell-based, human; details: A549/DDP (DDP-resistant), 48 h
# Description: as §2
# [15] = system: H460; experiment: MTT cell viability assay, H460; format: cell-based, human; details: 48 h
# Description: as §2
# [16] = system: H292 xenograft tumor; experiment: H292 xenograft tumor growth in nude mice; format: in vivo; details: 120 mg/kg, tail vein every 3 days
# Description: as §3, §4
# [17] = system: H460 cells; experiment: Cell cycle by PI flow cytometry, H460; format: cell-based, human; details: diplatin 50 µM, DDP 5 µM, CBP 100 µM
# Description: as §1
# [18] = system: Calu-3; experiment: MTT cell viability assay, Calu-3; format: cell-based, human; details: 48 h
# Description: as §2
# [19] = system: A549/DDP xenograft tumor; details: diplatin 120 mg/kg vs DDP 6 mg/kg and CBP 60 mg/kg
# Description: as §3, §4
# [20] = system: H292 cells; experiment: Cell cycle by PI flow cytometry, H292; format: cell-based, human; details: diplatin 50 μM, DDP 5 μM, CBP 100 μM
# Description: as §1
compound,measurement,setting,value
CCN(CC)CCCCC1C(=O)[O][Pt][O]C1=O.N[C@@H]1CCCC[C@H]1N.O=P(O)(O)O [Diplatin],effect on growth of A549 xenograft tumors,[1],dose-dependently inhibited the growth
same,animals showing signs of mild kyphosis and piloerection,[2]; 240 mg/kg twice a week for 4 weeks,approximately 20%
same,changes in behavior (altered nesting) and activity (altered exploring),"[2]; 60, 120, or 240 mg/kg twice a week for 4 weeks",no notable changes
same,renal pathology in rats,[3],nephrotoxicity
same,effect on cell cycle distribution,[4],significant accumulation of cells in G2/M phase
same,effect on LTEP-A-2 xenograft tumor volume and weight,[5],significant inhibition on xenograft tumor volume and weight
same,time of maximum platinum levels in the plasma,[6],0.33 h
same,Mice ED50,[7],52.0 mg/kg
same,IC50,[8],25 µM
same,IC50,[9],24.6 µM
same,effect on cell cycle distribution,[10],significant accumulation of cells in G2/M phase
same,"Pt accumulation in the kidneys, times higher than CBP",[11],2.2 times
same,EdU incorporation,[12],dramatically decreased
same,effect on body weight,[13]; diplatin 30 mg/kg and 60 mg/kg,no observable effects
same,reduction of body weight by day 25,"[13]; diplatin 120 mg/kg, CBP 60 mg/kg, every 3 days i.v.",14.38%
same,IC50,[14],133 µM
same,IC50,[15],40.7 µM
same,inhibition of H292 xenograft tumor growth,[16],65.0%
same,effect on cell cycle distribution,[17],failed to arrest the cells in the G2/M phase
same,IC50,[18],161 µM
same,antitumor activity in A549/DDP xenograft tumor,[19],more potent antitumor activities than DDP and CBP
same,effect on cell cycle distribution,[20],failed to arrest any portion of the cell cycle
